One test deals with T1, IDH2 R140Q (Homo sapiens, UniProt P48735, R140Q).
T1 sequence (P48735 40-452 R140Q): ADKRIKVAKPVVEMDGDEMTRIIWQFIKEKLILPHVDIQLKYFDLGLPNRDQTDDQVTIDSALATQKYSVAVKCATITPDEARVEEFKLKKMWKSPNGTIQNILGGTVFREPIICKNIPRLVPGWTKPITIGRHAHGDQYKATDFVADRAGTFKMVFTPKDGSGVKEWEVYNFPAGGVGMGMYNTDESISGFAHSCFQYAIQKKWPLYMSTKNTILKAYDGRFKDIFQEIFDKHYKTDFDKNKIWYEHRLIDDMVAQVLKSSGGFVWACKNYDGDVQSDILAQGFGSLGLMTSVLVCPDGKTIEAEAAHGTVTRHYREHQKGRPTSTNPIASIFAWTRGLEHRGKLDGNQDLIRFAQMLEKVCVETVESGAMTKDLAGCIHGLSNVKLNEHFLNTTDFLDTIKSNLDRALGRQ
Briefly: IDH2 R140Q enzymatic assay (cofactor depletion, similar format). It counts as biochemical. The following applies: read-out: Enz R140Q.

Test [1] deals with U87MG pLVX-IDH2 R140Q-neo cells. Briefly: U87MG pLVX-IDH2 R140Q-neo cell based assay, 2-HG in media by LC-MS at 48 hours. The following applies: Homo sapiens, U-87 MG. In short, it runs like this: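 U87MG cells stably expressing IDH2 R140Q were seeded overnight, then exposed to compound at 0.2% final DMSO at 37 °C, 5% CO2. 2-HG in the medium was quantified by LC-MS at 48 h. Growth inhibition was read by CellTiter-Glo luminescence at 72 h.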

For a further test, the target named is T2, IDH2 R172K (Homo sapiens, UniProt P48735, R172K).
T2 sequence (P48735 40-452 R172K): T1 sequence (P48735 40-452 R140Q) with Q101R, R133K
Kind of test: IDH2 R172K enzymatic assay (NADPH cofactor depletion, diaphorase/resazurin readout). Format: biochemical. To be noted: read-out: Enz R172K. The gist of the method: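 Compound was preincubated with IDH2 R172K for 1 h at room temperature, then the reaction was started with substrate mix containing 50 μM NADPH and 6.3 mM α-KG. After another 1 h at room temperature, stop mix with diaphorase and resazurin consumed the remaining NADPH, and resorufin fluorescence was read.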
(In general: Alamar Blue is a resazurin reagent that responds to reducing activity.)

Substitutions are numbered along the chain they refer to. Where only a bound is given, the exact number is not on record here.

Turning to `CC(C)Nc1nc(Nc2ccc(F)nc2)nc(-c2cccc(N)n2)n1` [Compound 462, 6-(6-Amino-pyridin-2-yl)-N-(6-fluoro-pyridin-3-yl)-N′-isopropyl-[1,3,5]triazine-2,4-diamine], the IC50 (on IDH2 R140Q; in test [1]; at IDH2 R172K) was 0.1 to 1 µM each time.

Regarding `CC#Cc1cccc(-c2nc(Nc3cc(F)cc(F)c3)nc(NC(C)C)n2)n1` [Compound 463, N-(3,5-Difluoro-phenyl)-N′-isopropyl-6-(6-prop-1-ynyl-pyridin-2-yl)-[1,3,5]triazine-2,4-diamine], the IC50 at IDH2 R140Q was 0.1 to 1 µM; in test [1] it was less than 0.1 µM; on IDH2 R172K, less than 0.1 µM.

As for `CNc1cccc(-c2nc(Nc3cc(F)cc(F)c3)nc(NC(C)C)n2)n1` [Compound 465], the IC50 was 0.1 to 1 µM at IDH2 R140Q, less than 0.1 µM in test [1] and less than 0.1 µM at IDH2 R172K.

Take `CC(C)Nc1nc(Nc2cccc(S(C)(=O)=O)c2)nc(-c2c(F)cccc2F)n1` [Compound 466, 6-(2,6-difluorophenyl)-N2-isopropyl-N4-(3-(methylsulfonyl)phenyl)-1,3,5-triazine-2,4-diamine]: the IC50 at IDH2 R140Q was 0.1 to 1 µM; in test [1], less than 0.1 µM; on IDH2 R172K it was 0.1 to 1 µM.

Consider `CC#Cc1cccc(-c2nc(Nc3cccc(F)c3)nc(NC(C)C)n2)n1` [Compound 467, N-(3-Fluoro-phenyl)-N′-isopropyl-6-(6-prop-1-ynyl-pyridin-2-yl)-[1,3,5]triazine-2,4-diamine], for which the IC50 (at IDH2 R140Q; in test [1]; on IDH2 R172K) was 0.1 to 1 µM throughout.

For `CC(C)Nc1nc(Nc2cncc(C(F)(F)F)c2)nc(-c2cccc(N)n2)n1` [Compound 468, 6-(6-Amino-pyridin-2-yl)-N-isopropyl-N′-(5-trifluoromethyl-pyridin-3-yl)-[1,3,5]triazine-2,4-diamine], the IC50 on IDH2 R140Q was 0.1 to 1 µM; in test [1] it was less than 0.1 µM; at IDH2 R172K, less than 0.1 µM.

Turning to `CC(C)Nc1nc(Nc2cc(F)cc(F)c2)nc(-c2nc(O)ccc2F)n1` [Compound 469, 6-[4-(3,5-Difluoro-phenylamino)-6-isopropylamino-[1,3,5]triazin-2-yl]-5-fluoro-pyridin-2-ol], the IC50 (on IDH2 R140Q; in test [1]; on IDH2 R172K) was less than 0.1 µM each time.

Turning to `CC(C)Nc1nc(Nc2cncc(F)c2)nc(-c2cccc(N)n2)n1` [Compound 470, 6-(6-Amino-pyridin-2-yl)-N-(5-fluoro-pyridin-3-yl)-N′-isopropyl-[1,3,5]triazine-2,4-diamine], the IC50 on IDH2 R140Q was 0.1 to 1 µM; in test [1], less than 0.1 µM; at IDH2 R172K, 0.1 to 1 µM.

In the case of `Cc1nc(-c2nc(Nc3cccc(F)c3)nc(NC(C)C)n2)co1` [Compound 471, N-(3-Fluoro-phenyl)-N′-isopropyl-6-(2-methyl-oxazol-4-yl)-[1,3,5]triazine-2,4-diamine], the values for the IC50 (at IDH2 R140Q; in test [1]; on IDH2 R172K) were 0.1 to 1 µM, less than 0.1 µM and 0.1 to 1 µM, respectively.

As to `Cc1cc(-c2nc(Nc3cccc(F)c3)nc(NC(C)C)n2)no1` [Compound 472, N-(3-Fluoro-phenyl)-N′-isopropyl-6-(5-methyl-isoxazol-3-yl)-[1,3,5]triazine-2,4-diamine], the values for the IC50 (on IDH2 R140Q; in test [1]; at IDH2 R172K) were less than 0.1 µM, less than 0.1 µM and 0.1 to 1 µM, respectively.

In the case of `CC(C)Nc1nc(Nc2cccc(F)c2)nc(-c2c(F)cccc2F)n1` [Compound 473, 6-(2,6-Difluoro-phenyl)-N-(3-fluoro-phenyl)-N′-isopropyl-[1,3,5]triazine-2,4-diamine], the IC50 (on IDH2 R140Q; in test [1]; at IDH2 R172K) was less than 0.1 µM each time.

In the case of `CC(C)Nc1nc(Nc2cncc(F)c2)nc(-c2c(F)cccc2F)n1` [Compound 474, 6-(2,6-Difluoro-phenyl)-N-(5-fluoro-pyridin-3-yl)-N′-isopropyl-[1,3,5]triazine-2,4-diamine], the results for the IC50 (on IDH2 R140Q; in test [1]; on IDH2 R172K) were 0.1 to 1 µM, less than 0.1 µM and less than 0.1 µM, respectively.

Take `CC(C)Nc1nc(Nc2cccc(F)c2)nc(-c2nc(C(F)(F)F)cs2)n1` [Compound 475, N-(3-Fluoro-phenyl)-N′-isopropyl-6-(4-trifluoromethyl-thiazol-2-yl)-[1,3,5]triazine-2,4-diamine]: the IC50 (at IDH2 R140Q; in test [1]; at IDH2 R172K) was less than 0.1 µM in each case.

For `Cc1nc(-c2nc(Nc3cc(F)cc(F)c3)nc(NC(C)C)n2)co1` [Compound 476, N-(3,5-Difluoro-phenyl)-N′-isopropyl-6-(2-methyl-oxazol-4-yl)-[1,3,5]triazine-2,4-diamine], the IC50 on IDH2 R140Q was less than 0.1 µM; in test [1] it was less than 0.1 µM; at IDH2 R172K it was 0.1 to 1 µM.

For the molecule `CC(C)Nc1nc(Nc2cc(F)cc(F)c2)nc(-c2nc(N)ccc2F)n1` [Compound 477, 6-(6-amino-3-fluoropyridin-2-yl)-N2-(3,5-difluorophenyl)-N4-isopropyl-1,3,5-triazine-2,4-diamine], the IC50 was 0.1 to 1 µM on IDH2 R140Q, less than 0.1 µM in test [1] and less than 0.1 µM on IDH2 R172K.

With `Nc1ccnc(-c2nc(NCC3CC3)nc(Nc3cc(F)cc(F)c3)n2)n1` [Compound 478, 6-(4-Amino-pyrimidin-2-yl)-N-cyclopropylmethyl-N′-(3,5-difluoro-phenyl)-[1,3,5]triazine-2,4-diamine], the IC50 at IDH2 R140Q is 0.1 to 1 µM; in test [1] it was less than 0.1 µM; on IDH2 R172K it was less than 0.1 µM.

Regarding `CC(C)(C)Nc1nc(Nc2cc(F)cc(F)c2)nc(-c2nccc(N)n2)n1` [Compound 479, 6-(4-Amino-pyrimidin-2-yl)-N-tert-butyl-N′-(3,5-difluoro-phenyl)-[1,3,5]triazine-2,4-diamine], the IC50 on IDH2 R140Q is 0.1 to 1 µM; in test [1], less than 0.1 µM; on IDH2 R172K, 0.1 to 1 µM.

Take `Nc1ccnc(-c2nc(NCC(F)(F)F)nc(Nc3cc(F)cc(F)c3)n2)n1` [Compound 480, 6-(4-Amino-pyrimidin-2-yl)-N-(3,5-difluoro-phenyl)-N′-(2,2,2-trifluoro-ethyl)-[1,3,5]triazine-2,4-diamine]: the values for the IC50 (on IDH2 R140Q; in test [1]; at IDH2 R172K) were 0.1 to 1 µM, less than 0.1 µM and 0.1 to 1 µM, respectively.

As for `CC(C)Nc1nc(Nc2cc(F)cc(F)c2)nc(-c2nc(N)cc(C(F)(F)F)n2)n1` [Compound 481, 6-(4-amino-6-(trifluoromethyl)pyrimidin-2-yl)-N2-(3,5-difluorophenyl)-N4-isopropyl-1,3,5-triazine-2,4-diamine], the IC50 on IDH2 R140Q was 0.1 to 1 µM; in test [1], less than 0.1 µM; at IDH2 R172K, less than 0.1 µM.

Turning to `CC(C)Nc1nc(Nc2cc(F)cc(F)c2)nc(-c2ccnc(N)n2)n1` [Compound 482, 6-(2-Amino-pyrimidin-4-yl)-N-(3,5-difluoro-phenyl)-N′-isopropyl-[1,3,5]triazine-2,4-diamine], the IC50 is 0.1 to 1 µM at IDH2 R140Q, less than 0.1 µM in test [1] and less than 0.1 µM at IDH2 R172K.

As for `CC(C)Nc1nc(Nc2cccc(S(C)(=O)=O)c2)nc(-c2cc(Cl)cc(Cl)n2)n1` [Compound 483, 6-(4,6-dichloropyridin-2-yl)-N2-isopropyl-N4-(3-(methylsulfonyl)phenyl)-1,3,5-triazine-2,4-diamine], the IC50 on IDH2 R140Q lay within 0.1 to 1 µM; in test [1] it was 0.1 to 1 µM; on IDH2 R172K it was 1 to 10 µM.

For the molecule `CC(C)Nc1nc(Nc2cccc(S(C)(=O)=O)c2)nc(-c2nc(C(F)(F)F)ccc2F)n1` [Compound 484, 6-(3-fluoro-6-(trifluoromethyl)pyridin-2-yl)-N2-isopropyl-N4-(3-(methylsulfonyl)phenyl)-1,3,5-triazine-2,4-diamine], the IC50 is 0.1 to 1 µM on IDH2 R140Q, less than 0.1 µM in test [1] and 0.1 to 1 µM on IDH2 R172K.

In the case of `CC(C)Nc1nc(Nc2cc(F)cc(F)c2)nc(-c2cc(Cl)cc(N)n2)n1` [Compound 485, 6-(6-amino-4-chloropyridin-2-yl)-N^2-(3,5-difluorophenyl)-N^4-isopropyl-1,3,5-triazine-2,4-diamine], the IC50 on IDH2 R140Q is 0.1 to 1 µM; in test [1] it was less than 0.1 µM; at IDH2 R172K, 0.1 to 1 µM.

For `Nc1cccc(-c2nc(NCC(F)(F)F)nc(Nc3cc(F)cc(F)c3)n2)n1` [Compound 491, 6-(6-aminopyridin-2-yl)-N2-(3,5-difluorophenyl)-N4-(2,2,2-trifluoroethyl)-1,3,5-triazine-2,4-diamine], the IC50 was 0.1 to 1 µM on IDH2 R140Q, less than 0.1 µM in test [1] and less than 0.1 µM on IDH2 R172K.

These data come from patent publication US9512107B2, “Therapeutically active compositions and their methods of use” (Agios Pharmaceuticals, Inc., priority 2012, dated 2016).
